Data reported in ChEMBL document CHEMBL1133636, “Discovery of (2S)-1-(4-amino-2,3,5- trimethylphenoxy)-3-[4-[4-(4- fluorobenzyl)phenyl]-1-piperazinyl]-2-propanol dimethanesulfonate (SUN N8075): a dual Na(+) and Ca(2+) channel blocker with antioxidant activity” (J Med Chem, 2000).

Experiments:
D(2) dopamine receptor = D(2) dopamine receptor (Rattus norvegicus, UniProt P61169); assay: Concentration required for 50% inhibitory effect on Dopamine receptor D2 determined in competition experiments with [3H]raclopride
Chain of D(2) dopamine receptor (P61169 whole entry): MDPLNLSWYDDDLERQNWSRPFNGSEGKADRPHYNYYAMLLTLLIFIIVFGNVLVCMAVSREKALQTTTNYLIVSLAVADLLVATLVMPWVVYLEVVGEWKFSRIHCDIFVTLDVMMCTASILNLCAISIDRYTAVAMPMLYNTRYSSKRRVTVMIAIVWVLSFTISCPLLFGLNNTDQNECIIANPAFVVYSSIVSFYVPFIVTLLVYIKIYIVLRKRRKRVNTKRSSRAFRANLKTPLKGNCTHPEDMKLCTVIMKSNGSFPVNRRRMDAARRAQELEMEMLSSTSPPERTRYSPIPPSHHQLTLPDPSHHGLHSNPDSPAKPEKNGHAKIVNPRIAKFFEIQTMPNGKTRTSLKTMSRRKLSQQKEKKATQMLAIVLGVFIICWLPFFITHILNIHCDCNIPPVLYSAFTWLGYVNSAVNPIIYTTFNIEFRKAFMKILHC

Rattus norvegicus [1] = organism: Rattus norvegicus; assay: Concentration required for 50% inhibitory effect on automatic oxidation in plasma membrane of rat brain homogenates by measuring malondialdehyde and 4-hydroxyalkenals using peroxidized lipid colorimetric assay kit; format: functional
[2] = Inhibition of low-threshold (T-type) Calcium [Ca2+] currents in primary cultured rat cerebrocortical neurons using whole-cell voltage-clamp recording technique; format: functional
[3] = molecular target: Sodium channel alpha subunits; brain (Types I, II, III) (Rattus norvegicus, UniProt P04775+P04774+P08104); assay: Inhibition of veratridine-induced depolarization of rat cerebrocortical synaptosomes using a membrane potential sensitive fluorescent dye, rhodamine 6G; format: functional, subcellular
[4] = Tested for anticonvulsant effects on audiogenic seizures in DBA/2 mice; administered intra peritonealy; format: functional; conditions: Mus musculus
Rattus norvegicus [5] = organism: Rattus norvegicus; assay: Concentration required for 50% inhibitory effect on automatic oxidation in plasma membrane of rat brain homogenates by measuring malondialdehyde and 4-hydroxyalkenals using peroxidized lipid colorimetric assay kit.; format: functional

Row | SMILES | IC50 (D(2) dopamine receptor) [nM] | IC50 (Rattus norvegicus [1]) [µM] | IC50 [2] [nM] | IC50 [3] [µM] | ED50 [4] [mg/kg] | IC50 (Rattus norvegicus [5]) [µM]
1 | CS(=O)(=O)O.CS(=O)(=O)O.Cc1cc(OC[C@@H](O)CN2CCN(c3ccc(Cc4ccc(F)cc4)cc3)CC2)c(C)c(C)c1N | > 10000 | 0.31 | 2000 | 0.42 | 6.5 | –
2 | CC(C)c1ccc(CN2CCN(C(c3ccc(F)cc3)c3ccc(F)cc3)CC2)c(=O)c(NCCO)c1 | 1690 | 20 | 300 | 0.36 | 14.5 | –
3 | Cc1c(C)c2c(c(C)c1O)CC[C@@](C)(CCC[C@H](C)CCC[C@H](C)CCCC(C)C)O2 [ALPHA-TOCOPHEROL] | – | – | – | – | – | > 100
4 | Fc1ccc(C(c2ccc(F)cc2)N2CCN(C/C=C/c3ccccc3)CC2)cc1 [FLUNARIZINE] | – | – | 2200 | – | 11.4 | –
